From publication PMC5346980 (ACS Medicinal Chemistry Letters, 2017)
Where two headings read alike, the source gives them in different places.

Assays:
Purified Hb = Purified Hb (Homo sapiens, UniProt P69905); assay: Time dependence of hemoglobin-oxygen affinity; type: biochemical; details: Purified Hb 25 µM, 37 °C
[1] = molecular target: purified Hb (a mixture of HbA and HbS) (Homo sapiens, UniProt P69905); assay: Hemoximetry oxygen equilibrium curves; type: biochemical; details: des-formyl compound lacking the aldehyde
CYP3A4 = CYP3A4 (Homo sapiens, UniProt P08684); assay: Time-dependent CYP inhibition; type: in vitro ADME
BCRP = molecular target: T1, BCRP (Homo sapiens, UniProt Q9UNQ0); assay: Transporter substrate assessment; type: in vitro ADME
T1 sequence (Q9UNQ0 1-655): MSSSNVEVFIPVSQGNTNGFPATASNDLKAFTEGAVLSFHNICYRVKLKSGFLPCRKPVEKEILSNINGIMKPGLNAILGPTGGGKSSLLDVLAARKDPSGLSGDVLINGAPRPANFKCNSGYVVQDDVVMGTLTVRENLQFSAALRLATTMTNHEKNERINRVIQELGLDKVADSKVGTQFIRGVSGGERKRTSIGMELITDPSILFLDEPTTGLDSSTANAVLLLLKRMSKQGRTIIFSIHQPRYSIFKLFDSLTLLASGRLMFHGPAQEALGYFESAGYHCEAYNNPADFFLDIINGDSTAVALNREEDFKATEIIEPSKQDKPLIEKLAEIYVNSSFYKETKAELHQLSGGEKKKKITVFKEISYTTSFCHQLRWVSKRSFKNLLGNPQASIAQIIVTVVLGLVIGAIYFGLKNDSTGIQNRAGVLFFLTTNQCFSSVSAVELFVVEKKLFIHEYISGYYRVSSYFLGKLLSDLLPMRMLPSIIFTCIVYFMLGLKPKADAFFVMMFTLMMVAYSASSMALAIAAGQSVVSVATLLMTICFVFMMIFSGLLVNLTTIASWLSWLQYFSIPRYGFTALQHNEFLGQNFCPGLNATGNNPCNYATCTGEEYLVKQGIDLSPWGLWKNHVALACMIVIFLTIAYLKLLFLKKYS

[2] = rats; cited from earlier work
[3] = dogs; cited from earlier work
CYP2C19 = CYP2C19 (Homo sapiens, UniProt P33261); assay: Time-dependent CYP inhibition; type: in vitro ADME
[4] = monkeys; cited from earlier work
P-gp = P-gp (Homo sapiens, UniProt P08183); assay: Transporter substrate assessment; type: in vitro ADME
P-gp, sequence (P08183 whole entry): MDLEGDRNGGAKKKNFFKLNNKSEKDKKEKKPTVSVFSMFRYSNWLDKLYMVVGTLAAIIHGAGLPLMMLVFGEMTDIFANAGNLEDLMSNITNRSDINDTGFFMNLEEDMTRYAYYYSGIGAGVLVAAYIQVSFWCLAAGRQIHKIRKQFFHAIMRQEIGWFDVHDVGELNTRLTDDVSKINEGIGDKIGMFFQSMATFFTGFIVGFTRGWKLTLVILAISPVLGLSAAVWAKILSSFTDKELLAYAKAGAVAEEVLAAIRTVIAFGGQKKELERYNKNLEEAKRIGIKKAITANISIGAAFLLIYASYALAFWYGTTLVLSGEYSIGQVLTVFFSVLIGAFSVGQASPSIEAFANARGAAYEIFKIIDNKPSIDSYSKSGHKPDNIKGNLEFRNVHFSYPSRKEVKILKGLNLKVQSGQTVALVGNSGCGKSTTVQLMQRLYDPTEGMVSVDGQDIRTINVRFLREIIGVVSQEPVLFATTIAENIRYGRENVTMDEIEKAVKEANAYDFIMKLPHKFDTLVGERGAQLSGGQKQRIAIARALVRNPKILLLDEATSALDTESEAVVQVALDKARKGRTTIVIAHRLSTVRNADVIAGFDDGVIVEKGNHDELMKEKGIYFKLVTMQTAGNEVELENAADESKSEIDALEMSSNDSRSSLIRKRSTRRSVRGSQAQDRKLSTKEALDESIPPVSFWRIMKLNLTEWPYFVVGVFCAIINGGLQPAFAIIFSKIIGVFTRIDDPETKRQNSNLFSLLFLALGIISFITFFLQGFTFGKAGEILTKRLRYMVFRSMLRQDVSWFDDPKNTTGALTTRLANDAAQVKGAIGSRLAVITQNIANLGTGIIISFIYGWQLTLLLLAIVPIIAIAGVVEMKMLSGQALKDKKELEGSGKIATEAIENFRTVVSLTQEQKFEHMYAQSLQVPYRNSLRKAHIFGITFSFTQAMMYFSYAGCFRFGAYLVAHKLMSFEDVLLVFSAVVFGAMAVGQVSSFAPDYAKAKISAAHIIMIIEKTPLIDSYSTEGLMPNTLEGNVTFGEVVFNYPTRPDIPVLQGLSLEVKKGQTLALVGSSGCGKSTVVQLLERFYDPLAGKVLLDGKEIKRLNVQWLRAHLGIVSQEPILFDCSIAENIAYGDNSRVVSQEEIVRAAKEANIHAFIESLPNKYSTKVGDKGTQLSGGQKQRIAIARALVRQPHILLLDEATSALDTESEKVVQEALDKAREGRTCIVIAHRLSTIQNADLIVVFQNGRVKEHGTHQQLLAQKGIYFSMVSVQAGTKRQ

Purified Hb, sequence (P69905 2-142 limits assumed): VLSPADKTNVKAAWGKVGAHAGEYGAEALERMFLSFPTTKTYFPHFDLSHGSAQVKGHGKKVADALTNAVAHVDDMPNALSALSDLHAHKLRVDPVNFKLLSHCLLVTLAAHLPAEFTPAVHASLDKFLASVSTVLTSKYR
CYP2C19, sequence (P33261 whole entry): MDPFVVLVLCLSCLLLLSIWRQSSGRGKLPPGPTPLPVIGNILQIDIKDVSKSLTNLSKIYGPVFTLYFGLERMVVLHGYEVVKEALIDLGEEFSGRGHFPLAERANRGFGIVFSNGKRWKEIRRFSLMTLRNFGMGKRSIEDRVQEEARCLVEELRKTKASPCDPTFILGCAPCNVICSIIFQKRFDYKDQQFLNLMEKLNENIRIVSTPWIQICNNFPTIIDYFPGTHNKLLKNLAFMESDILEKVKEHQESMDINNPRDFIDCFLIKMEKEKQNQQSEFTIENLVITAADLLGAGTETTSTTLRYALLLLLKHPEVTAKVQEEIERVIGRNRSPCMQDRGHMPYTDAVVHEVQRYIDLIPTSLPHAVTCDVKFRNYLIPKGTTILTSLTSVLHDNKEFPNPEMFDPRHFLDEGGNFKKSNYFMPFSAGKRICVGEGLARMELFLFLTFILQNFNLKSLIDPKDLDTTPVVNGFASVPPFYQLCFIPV
CYP3A4, sequence (P08684 whole entry): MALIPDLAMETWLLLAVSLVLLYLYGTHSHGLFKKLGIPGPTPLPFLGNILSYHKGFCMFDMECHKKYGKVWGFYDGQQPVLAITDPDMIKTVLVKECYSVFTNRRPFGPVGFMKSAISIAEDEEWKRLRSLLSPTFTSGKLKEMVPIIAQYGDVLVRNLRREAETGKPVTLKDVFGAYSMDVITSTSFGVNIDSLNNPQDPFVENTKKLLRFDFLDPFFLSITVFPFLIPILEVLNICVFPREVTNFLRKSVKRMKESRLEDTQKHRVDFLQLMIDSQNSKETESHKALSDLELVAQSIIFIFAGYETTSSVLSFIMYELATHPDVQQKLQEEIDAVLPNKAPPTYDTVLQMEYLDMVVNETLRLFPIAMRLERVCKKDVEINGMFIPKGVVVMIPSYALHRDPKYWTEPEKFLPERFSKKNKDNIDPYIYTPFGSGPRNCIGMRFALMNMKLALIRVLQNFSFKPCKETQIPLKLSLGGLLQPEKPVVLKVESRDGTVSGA
purified Hb (a mixture of HbA and HbS), sequence (P69905 2-142 limits assumed): as the sequence (P69905 2-142 limits assumed) above

COc1ccc(OCc2cccnc2)c(C=O)c1 [Compound 4]
time to maximum effect on Hb oxygenation (surrogate for on-rate) (Purified Hb; compound 100 µM): ~1 h

COc1ccc(OCc2cccnc2-c2ccnn2C(C)C)cn1 [Compound 46]
activity as Hb allosteric modulator (result in words) [1]: inactive

O=Cc1ccc(CO)o1 [Compound 1, 5-hydroxymethylfurfural]
time to maximum effect on Hb oxygenation (surrogate for on-rate) (Purified Hb; compound 5 mM): ~1 h

CC(C)n1nccc1-c1ncccc1COc1cccc(O)c1C=O [Compound 36]
time-dependent inhibition (CYP3A4): no significant time-dependent inhibition | substrate for BCRP transporter (BCRP): not a substrate | blood and plasma half-lives [2]: approximately 20 h | blood and plasma half-lives [3]: approximately 20 h | time-dependent inhibition (CYP2C19): no significant time-dependent inhibition | blood and plasma half-lives [4]: approximately 20 h | substrate for P-gp transporter (P-gp): not a substrate
